Data published in the NIST ThermoML archive (doi:10.1016/j.tca.2012.02.012).
± gives the expanded uncertainty stated by the source.

What was measured:
[1] = xn = mol fraction of the nth substance listed; conditions: 1850 K, 101 kPa, Liquid, Knudsen
[2] = excess molar enthalpy (molar enthalpy of mixing); xn = mol fraction of the nth substance listed; conditions: 1850 K, 101 kPa, Liquid, Knudsen

SMILES	excess molar Gibbs energy ([1]; x1 = 0.5) [kcal/mol]	excess molar enthalpy ([2]; x1 = 0.5) [kcal/mol]	excess molar Gibbs energy ([1]; x2 = 0.5) [kcal/mol]	excess molar enthalpy ([2]; x2 = 0.5) [kcal/mol]
[Fe] [iron] + [Au]	-0.1819 ± 0.000239	1.76 ± 0.0179		
[Pd] [palladium] + [Fe]			-1.7232 ± 0.000239	-5.999 ± 0.0598
